Measured values: ChEMBL document CHEMBL5257017, “Small Molecule CXCR3 Antagonists” (J Med Chem, 2016)
In brackets after ≈: the same amount, converted by molar mass. Values belong to the compound of their own block, whether it stands above or below them.

Experiments:
[1] = Half life in mouse at 10 mg/kg, po or 5 mg/kg, iv; assay type: ADME, organism-based; conditions: in vivo
[2] = Oral bioavailability in mouse at 10 mg/kg; assay type: ADME, organism-based; conditions: in vivo
[3] = Clearance in rat at 10 mg/kg, po or 5 mg/kg, iv; assay type: ADME, organism-based; conditions: in vivo
[4] = target: T1, C-X-C chemokine receptor type 3 (Homo sapiens, UniProt P49682); experiment: Antagonist activity at human CXCR3 assessed as reduction in CXCL11 induced calcium flux by [35S]GTPgammaS binding assay
T1 sequence (P49682 whole entry): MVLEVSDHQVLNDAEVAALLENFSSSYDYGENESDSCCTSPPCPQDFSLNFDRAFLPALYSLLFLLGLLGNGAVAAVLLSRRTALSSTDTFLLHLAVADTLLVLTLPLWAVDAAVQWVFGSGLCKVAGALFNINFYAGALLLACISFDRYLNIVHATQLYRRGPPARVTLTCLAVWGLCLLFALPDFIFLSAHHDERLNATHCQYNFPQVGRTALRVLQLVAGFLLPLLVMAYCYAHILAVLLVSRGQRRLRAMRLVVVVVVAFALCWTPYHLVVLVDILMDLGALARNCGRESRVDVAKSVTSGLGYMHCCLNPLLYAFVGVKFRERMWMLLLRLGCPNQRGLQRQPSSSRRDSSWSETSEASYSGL

[5] = Lipophilicity, logD of compound at pH 7.4; assay type: physicochemical; conditions: buffer
[6] = Solubility of compound; assay type: physicochemical
[7] = target: T1, C-X-C chemokine receptor type 3; experiment: Displacement of [125I]-CXCL10 from CXCR3 in human PBMC cells; assay type: cell-based
[8] = AUC in rat at 10 mg/kg, po; assay type: ADME, organism-based; design: dose 10 mg/kg, route po; conditions: in vivo
[9] = target: T2, C-X-C chemokine receptor type 3 (Mus musculus, UniProt O88410); experiment: […] of CXCR3 receptor internalization in mouse whole blood in presence of CXCl10 by flow cytometry; assay type: tissue-based
T2 sequence (O88410 whole entry): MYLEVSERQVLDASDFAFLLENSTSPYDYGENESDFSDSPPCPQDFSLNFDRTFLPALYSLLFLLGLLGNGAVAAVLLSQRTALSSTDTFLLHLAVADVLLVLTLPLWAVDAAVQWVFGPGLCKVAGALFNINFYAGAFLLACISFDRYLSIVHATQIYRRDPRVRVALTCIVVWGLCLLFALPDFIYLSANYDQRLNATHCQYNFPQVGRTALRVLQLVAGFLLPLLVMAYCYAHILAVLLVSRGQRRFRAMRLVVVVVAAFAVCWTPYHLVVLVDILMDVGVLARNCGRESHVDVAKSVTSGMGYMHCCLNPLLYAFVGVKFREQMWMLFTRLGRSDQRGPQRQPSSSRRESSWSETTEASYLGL

[10] = Volume of distribution in mouse at 10 mg/kg. po or 0.2 mg/kg, iv; assay type: ADME, organism-based; conditions: in vivo
[11] = Clearance in rat at 10 mg/kg, po or 0.2 mg/kg, iv; assay type: ADME, organism-based; conditions: in vivo
[12] = target: T1, C-X-C chemokine receptor type 3; experiment: Antagonist activity at CXCR3 (unknown origin) assessed as reduction in CXCL10 induced calcium flux by flow cytometry
[13] = target: C-X-C chemokine receptor type 3 (Homo sapiens) (UniProt P49682); experiment: Inhibition of CXCR3 at 20 to 50 uM relative to control
hERG (KCNH2) [14] = target: T3, hERG (KCNH2) (Homo sapiens, UniProt Q12809); experiment: Inhibition of hERG at 3 uM relative to control; assay type: toxicity
T3 sequence (Q12809 whole entry): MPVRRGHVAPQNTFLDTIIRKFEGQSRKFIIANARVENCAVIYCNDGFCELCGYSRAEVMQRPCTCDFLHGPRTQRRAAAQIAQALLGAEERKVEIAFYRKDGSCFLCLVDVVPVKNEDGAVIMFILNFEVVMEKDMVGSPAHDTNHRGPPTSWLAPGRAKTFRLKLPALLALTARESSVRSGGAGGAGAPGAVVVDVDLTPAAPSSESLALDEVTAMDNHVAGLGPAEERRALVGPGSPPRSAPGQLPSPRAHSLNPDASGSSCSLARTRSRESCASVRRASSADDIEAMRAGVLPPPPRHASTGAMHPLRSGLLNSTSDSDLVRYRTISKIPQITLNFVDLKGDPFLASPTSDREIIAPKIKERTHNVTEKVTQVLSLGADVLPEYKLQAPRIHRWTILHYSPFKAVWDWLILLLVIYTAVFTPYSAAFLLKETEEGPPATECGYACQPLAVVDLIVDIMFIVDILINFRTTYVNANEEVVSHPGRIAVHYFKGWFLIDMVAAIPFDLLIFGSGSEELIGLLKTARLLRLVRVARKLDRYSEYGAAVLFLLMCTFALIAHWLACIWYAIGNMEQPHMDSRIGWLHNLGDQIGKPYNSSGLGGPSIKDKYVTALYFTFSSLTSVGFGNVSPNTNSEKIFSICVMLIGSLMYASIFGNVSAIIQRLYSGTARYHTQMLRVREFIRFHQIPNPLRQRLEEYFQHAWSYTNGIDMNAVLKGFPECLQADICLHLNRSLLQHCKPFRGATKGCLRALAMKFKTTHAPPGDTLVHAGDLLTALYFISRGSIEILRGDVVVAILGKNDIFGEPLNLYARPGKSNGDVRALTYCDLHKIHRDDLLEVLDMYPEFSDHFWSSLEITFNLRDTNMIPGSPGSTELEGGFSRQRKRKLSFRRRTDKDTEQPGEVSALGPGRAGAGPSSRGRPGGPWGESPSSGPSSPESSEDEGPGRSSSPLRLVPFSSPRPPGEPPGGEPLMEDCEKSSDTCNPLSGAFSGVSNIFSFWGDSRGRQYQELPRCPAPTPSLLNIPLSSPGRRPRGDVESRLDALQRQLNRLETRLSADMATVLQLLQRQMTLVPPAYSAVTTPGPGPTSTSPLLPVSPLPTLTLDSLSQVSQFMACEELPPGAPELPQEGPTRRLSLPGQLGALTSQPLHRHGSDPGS

hERG (KCNH2) [15] = target: T3, hERG (KCNH2); experiment: Inhibition of hERG at 10 uM relative to control; assay type: toxicity
[16] = Half life in rat at 2.0 mg/kg, po or 0.5 mg/kg, iv; assay type: ADME, organism-based; conditions: in vivo
[17] = target: T1, C-X-C chemokine receptor type 3; experiment: Displacement of [125I]-CXCL10 from CXCR3 in human PBMC cells by scintillation proximity assay; assay type: cell-based
[18] = target: T1, C-X-C chemokine receptor type 3; experiment: Antagonist activity at CXCR3 (unknown origin) assessed as reduction in CXCL11 induced calcium flux by FLIPR method
[19] = target: T1, C-X-C chemokine receptor type 3; experiment: Antagonist activity at CXCR3 (unknown origin) assessed as reduction in CXCL11 induced calcium flux by flow cytometry
[20] = target: Voltage-gated inwardly rectifying potassium channel KCNH2 (Homo sapiens, UniProt Q12809); experiment: Inhibition of hERG; assay type: toxicity
Sequence of Voltage-gated inwardly rectifying potassium channel KCNH2 (Q12809 whole entry): as above

[21] = target: T1, C-X-C chemokine receptor type 3; experiment: Antagonist activity at CXCR3 (unknown origin) assessed as reduction in CXCL10 induced calcium flux by [35S]GTPgammaS binding assay
[22] = AUC in mouse at 10 mg/kg, po; assay type: ADME, organism-based; design: dose 10 mg/kg, route po; conditions: in vivo
[23] = AUC in rat at 2 mg/kg, po; assay type: ADME, organism-based; design: dose 2 mg/kg, route po; conditions: in vivo
[24] = Intrinsic clearance in mouse liver microsomes; assay type: ADME, Microsome
[25] = Clearance in mouse at 30 mg/kg, po; assay type: ADME, organism-based; conditions: in vivo
[26] = Oral bioavailability in mouse at 30 mg/kg; assay type: ADME, organism-based; conditions: in vivo
[27] = target: T1, C-X-C chemokine receptor type 3; experiment: Antagonist activity at CXCR3 (unknown origin) assessed as reduction in CXCL10 induced calcium flux by FLIPR method
[28] = target: C-C chemokine receptor type 7 (Homo sapiens) (UniProt P32248); experiment: Antagonist activity at CCR7 (unknown origin)
Sequence of C-C chemokine receptor type 7 (Homo sapiens) (P32248 whole entry, looked up): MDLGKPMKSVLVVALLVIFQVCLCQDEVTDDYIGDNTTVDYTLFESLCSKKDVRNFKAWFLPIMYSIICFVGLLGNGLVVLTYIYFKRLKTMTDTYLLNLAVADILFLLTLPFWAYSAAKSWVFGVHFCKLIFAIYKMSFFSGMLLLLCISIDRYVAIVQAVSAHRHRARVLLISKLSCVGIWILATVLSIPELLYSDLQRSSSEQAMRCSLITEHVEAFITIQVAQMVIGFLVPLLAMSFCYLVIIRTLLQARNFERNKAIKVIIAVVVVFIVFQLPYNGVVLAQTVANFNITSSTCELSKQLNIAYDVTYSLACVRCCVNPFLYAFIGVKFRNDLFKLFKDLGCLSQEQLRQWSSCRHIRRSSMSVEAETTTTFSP

[29] = target: C-C chemokine receptor type 6 (Homo sapiens) (UniProt P51684); experiment: Antagonist activity at CCR6 (unknown origin)
Sequence of C-C chemokine receptor type 6 (Homo sapiens) (P51684 whole entry, looked up): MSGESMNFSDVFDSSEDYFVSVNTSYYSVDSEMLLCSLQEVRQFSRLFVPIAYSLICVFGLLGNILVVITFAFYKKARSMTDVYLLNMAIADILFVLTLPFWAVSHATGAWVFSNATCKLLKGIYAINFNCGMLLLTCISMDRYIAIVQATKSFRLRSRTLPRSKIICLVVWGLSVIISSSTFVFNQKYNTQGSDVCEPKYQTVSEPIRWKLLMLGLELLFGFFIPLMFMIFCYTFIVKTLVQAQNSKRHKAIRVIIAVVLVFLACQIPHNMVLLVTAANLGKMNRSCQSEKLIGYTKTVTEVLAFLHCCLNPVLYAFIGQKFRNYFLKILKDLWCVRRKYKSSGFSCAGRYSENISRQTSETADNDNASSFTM

[30] = target: T1, C-X-C chemokine receptor type 3; experiment: Antagonist activity at CXCR3 (unknown origin)
[31] = target: C-C chemokine receptor type 4 (Homo sapiens) (UniProt P51679); experiment: Antagonist activity at CCR4 (unknown origin)
Sequence of C-C chemokine receptor type 4 (Homo sapiens) (P51679 whole entry, looked up): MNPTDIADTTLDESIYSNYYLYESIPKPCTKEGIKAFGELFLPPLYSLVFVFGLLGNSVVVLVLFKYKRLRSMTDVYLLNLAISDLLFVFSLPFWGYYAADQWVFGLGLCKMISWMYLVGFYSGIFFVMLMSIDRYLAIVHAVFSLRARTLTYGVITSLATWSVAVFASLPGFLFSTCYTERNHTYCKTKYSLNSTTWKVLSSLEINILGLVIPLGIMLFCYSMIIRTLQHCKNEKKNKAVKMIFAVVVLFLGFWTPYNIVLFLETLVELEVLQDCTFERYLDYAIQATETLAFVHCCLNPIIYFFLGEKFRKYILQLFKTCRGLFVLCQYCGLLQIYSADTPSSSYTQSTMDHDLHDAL

[32] = target: T4, C-X-C chemokine receptor type 2 (Homo sapiens, UniProt P25025); experiment: Antagonist activity at CXCR2 (unknown origin)
T4 sequence (P25025 whole entry): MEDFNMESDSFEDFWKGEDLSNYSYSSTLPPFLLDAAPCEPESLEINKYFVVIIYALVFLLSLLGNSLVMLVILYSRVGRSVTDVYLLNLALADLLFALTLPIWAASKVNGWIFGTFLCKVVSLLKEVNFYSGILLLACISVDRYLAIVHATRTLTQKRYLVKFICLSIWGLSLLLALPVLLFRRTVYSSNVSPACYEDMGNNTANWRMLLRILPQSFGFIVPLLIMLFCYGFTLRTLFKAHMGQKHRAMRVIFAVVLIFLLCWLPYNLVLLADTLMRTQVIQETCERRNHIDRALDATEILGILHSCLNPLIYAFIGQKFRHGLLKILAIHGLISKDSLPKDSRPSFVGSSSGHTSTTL

- half-life [1]: 4.9 h
- bioavailability [2]: 57%
- clearance [3]: 95 mL/min/kg
Structure (SMILES): Cc1cccc2c1n(C)c(=N)n2CC(=O)c1ccc(Cl)cc1

Structure (SMILES): CC(=O)N1C2C=C(CN3[C@@H]4CC[C@H]3C[C@H](NC(=O)Nc3cc(F)cc(C(F)(F)F)c3)C4)CC1CCC2
- Ki [4]: 0.00631 µM
- logD [5]: 3.1
- solubility [6]: 40 µg/mL (≈ 78.7 µM)

- Ki [7]: 0.000316 µM
- AUC [8]: 0.95 µM·h
Structure (SMILES): CCNC(=O)c1cnc(N2CCN(C3CCN(Cc4ccc(Cl)cc4F)CC3)[C@@H](CC)C2)c(Cl)c1

- IC50 [7]: 0.0126 µM
Structure (SMILES): COc1cc(CN(C[C@H]2CC[C@H](C(=O)O)CC2)[C@H]2CCc3cc(Cl)ccc32)ccc1OCCN1C(=O)CCC1=O

- IC50 [9]: 0.398 µM
Structure (SMILES): C[C@H]1CN(c2scnc2-c2nc3ccccc3[nH]2)CCN1C(=O)Cn1ccc2cccnc21

- Vd [10]: 1 L/kg
- clearance [11]: 28.3 mL/min/kg
- IC50 [12]: 0.2 µM
Structure (SMILES): N#Cc1ccc(S(=O)(=O)N(Cc2ccc(-c3nnn[nH]3)c(F)c2)Cc2ccccc2F)cc1

- IC50 [7]: 15.8 µM
Structure (SMILES): CC[C@H](C)C[C@H](C)C[C@H](C)[C@@H](O[C@@H]1O[C@H](COC(C)=O)[C@@H](O)[C@@H](O)[C@@H]1O)[C@@H](C)/C=C(\C)[C@@H](O)[C@@H](C)/C=C(\C)[C@@H](O)[C@@H](C)/C=C(\C)C(=O)OC[C@@H](O)[C@H](O)[C@H](O)CO

- inhibition at 50 µM [13]: 50%
Structure (SMILES): Cc1ccc(C(=O)N2CCN(CC(=O)Nc3cc(-c4ccccc4)sc3C(N)=O)CC2)cc1

- Ki [7]: 0.1 µM
Structure (SMILES): N#Cc1ccc(CN2CCC(N3CCN(c4ncc(C(=O)NCCOc5ccccc5)cc4Cl)CC3)CC2)cc1

Structure (SMILES): CC[C@H]1CN(c2ncc(C(N)=O)nc2C)CCN1C1CCN(Cc2ccc(Cl)nc2N)CC1
- inhibition at 3 µM (hERG (KCNH2) [14]): 0%

Structure (SMILES): CCNc1nnc(-c2cnc(N3C[C@H](CC)N(C4CCN(Cc5ccc(Cl)cc5)CC4)C[C@H]3C)c(C)n2)o1
- inhibition at 10 µM (hERG (KCNH2) [15]): 25%

- half-life [16]: 4 h
- IC50 [17]: 0.00631 µM
- IC50 [18]: 0.00501 µM
Structure (SMILES): C[C@H](c1nc2ncccc2c(=O)n1-c1ccc(Cl)cc1)N(CC1CCS(=O)(=O)CC1)C(=O)Cc1ccc(F)c(C(F)(F)F)c1

- IC50 [18]: 0.398 µM
Structure (SMILES): CCCCCCCCCC(=O)N(CCN(C)C)C(C)c1nc2ccccc2c(=O)n1-c1ccc(F)cc1 (stereo not drawn)

- pIC50 [19]: 7
- IC50 [18]: 0.0631 µM
Structure (SMILES): CCNC(=O)N1CCCN(c2ccc(C(=O)NCCc3ccc(Cl)cc3Cl)cc2NC(=O)c2cccc(Cl)c2)CC1

Structure (SMILES): O=C(Cn1c(=O)[nH]c2ccccc21)N1CCN(c2ncc(Cl)cc2-c2cnc(N3CCC(O)CC3)nc2)CC1
- IC50 [20]: 31.6 µM

- IC50 [17]: 0.00631 µM
Structure (SMILES): C[C@H](c1nc2ncccc2c(=O)n1-c1ccc(Cl)cc1)N(CC1CCS(=O)(=O)CC1)C(=O)Cc1ccc(C(F)(F)F)c(F)c1

- IC50 [21]: 0.0316 µM
Structure (SMILES): O=C(Nc1ccccc1)N1CCCC(c2ccccc2)(C2CCN(Cc3ccc(Br)cc3)CC2)C1 (stereo not drawn)

- Ki [7]: 0.000794 µM
- AUC [22]: 5.1 µM·h
Structure (SMILES): CC[C@H]1CN(c2nc(N)c(C(N)=O)nc2Cl)CCN1C1CCN(Cc2ccc(Cl)cc2)CC1

- Ki [7]: 0.158 µM
Structure (SMILES): N=C(Nc1ccc(I)cc1)NC1C2CC3CC(C2)CC1C3 (stereo not drawn)

- IC50 [7]: 3.16 µM
Structure (SMILES): CC(=O)c1nc2ccccc2n1CC(=O)c1ccc([N+](=O)[O-])cc1

- AUC [23]: 271 ng·h/mL
Structure (SMILES): CNc1ncc(-c2cc(C(F)(F)F)ccc2N2CCN(C(=O)Cn3nc(C)cc3C)CC2)cn1

- Ki [4]: 0.251 µM
- logD [5]: 5
- CLH [24]: 0.016 mL/min/kg
Structure (SMILES): CC1(C)[C@H]2CC=C(CN3CCC(Nc4nc(-c5cc(C(F)(F)F)cc(C(F)(F)F)c5)ns4)CC3)[C@@H]1C2

- IC50 [7]: 0.0501 µM
- IC50 [18]: 0.02 µM
Structure (SMILES): CCN(CC)C(=O)[C@@H]1C=C2C3C=CCc4[nH]cc(c43)C[C@H]2N(C(=O)Nc2ccccc2)C1 (stereo partly drawn)

- logD [5]: 2.9
- CL/F [25]: 9 mL/min/kg
- CLint [24]: 9 µL/min/mg
- bioavailability [26]: 69%
Structure (SMILES): CC(=O)N1C2C=C(CN3[C@@H]4CC[C@H]3C[C@H](Nc3ccc5ccc(OC(C)C)cc5n3)C4)CC1CCC2

- IC50 [18]: 2 µM
Structure (SMILES): CCNC(=O)N1CCCN(c2ccc(C(=O)NC(C)C)cc2NC(=O)c2cccc(Cl)c2)CC1

- Ki [4]: 0.1 µM
Structure (SMILES): O=C(Nc1ccc2ccccc2c1)NC1CCN(CC2=CCCCCC2)CC1

- Ki [27]: 6.5 µM
- Ki [18]: 0.2 µM
- IC50 [12]: 0.501 µM
- IC50 [21]: 0.1 µM
Structure (SMILES): CC(=O)Nc1cccc(/C(C)=N\NC(=O)c2ccc(CN(Cc3ccccc3)S(=O)(=O)c3ccc(Cl)cc3)cc2)c1

- IC50 [7]: 0.501 µM
Structure (SMILES): C[C@@H]1CC[C@@]2(OC1)OC1CC3C4CC=C5[C@@H](O[C@@H]6O[C@H](CO)[C@@H](O[C@H]7O[C@H](C)[C@@H](O)[C@H](O)[C@@H]7O)[C@@H](O)[C@H]6O[C@H]6O[C@@H](C)[C@@H](O)[C@H](O)[C@@H]6O)CCC[C@]5(C)C4CC[C@]3(C)C1[C@@H]2C (stereo partly drawn)

- IC50 [28]: 0.00794 µM
- IC50 [29]: 0.002 µM
- IC50 [30]: 0.00126 µM
- IC50 [31]: 0.398 µM
- IC50 [32]: 0.0631 µM
Structure (SMILES): Cc1ccc(C(Nc2c(Nc3cccc(C(=O)N(C)C)c3O)c(=O)c2=O)C2(C)CCCO2)o1 (stereo not drawn)
